From paper PMC10584170, “Machine learning-based phenotypic imaging to characterise the targetable biology of Plasmodium falciparum male gametocytes for the development of transmission-blocking antimalarials” (PLOS Pathogens, 2023)

Columns and labels:
[1] = system: P. falciparum male gametocytes; experiment: P. falciparum Dual Gamete Formation Assay (PfDGFA), male readout (exflagellation); format: cell-based, Plasmodium falciparum NF54; details: for Average inhibition male (%): average of replicates; for % inhibition male (individual replicates) R1: replicate R1; for % inhibition male (individual replicates) R3: replicate R3; for % inhibition male (individual replicates) R4: replicate R4; for Activity: hit = >50% inhibition in male or female readout in at least 3 replicates, 0 = no class assigned
In short: (§1)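 Two sex-specific readouts come from one well: male exflagellation centres recorded by brightfield video right after activation, and female gametes scored by Cy3-anti-Pfs25 fluorescence after 24 h at 28°C.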

[2] = system: P. falciparum female gametocytes; experiment: P. falciparum Dual Gamete Formation Assay (PfDGFA), female readout (Pfs25-positive female gametes); format: cell-based, Plasmodium falciparum NF54; details: for Average inhibition female (%): average of replicates; for % inhibition female (individual replicates) R1: replicate R1; for % inhibition female (individual replicates) R3: replicate R3; for % inhibition female (individual replicates) R4: replicate R4
In short: as §1

[3] = 2µM, 24h preincubation with gametocytes prior to induction of gametogenesis
[4] = 2µM, 24h preincubation, hits selected on >50% inhibition in the male readout across replicates
[5] = PfDGFA at 2µM, 24h preincubation
[6] = 2µM, 24h preincubation, hits selected on >50% inhibition in the female readout across replicates
[7] = PfDGFA at 2µM, 24h preincubation with gametocytes prior to induction of gametogenesis
[8] = PfDGFA at 2µM, 24h preincubation with gametocytes
[9] = 2µM, 24h preincubation, number of replicates with >50% inhibition in the male readout
[10] = 2µM, 24h preincubation, number of replicates with >50% inhibition in the female readout

Row | Compound | Average inhibition male (%) [1, 3] | % inhibition male (individual replicates) R1 [1, 3] | % inhibition male (individual replicates) R3 [1, 3] | % inhibition male (individual replicates) R4 [1, 3] | HitlevelM [1, 4] | Activity [1, 5] | Average inhibition female (%) [2, 3] | % inhibition female (individual replicates) R1 [2, 3] | % inhibition female (individual replicates) R3 [2, 3] | % inhibition female (individual replicates) R4 [2, 3] | HitlevelF [2, 6] | also measured
1 | Cc1cccc2nc(-c3cccc(-c4cccc(CNCCN5CCNCC5)c4)c3)[nH]c12.O=C(O)C(F)(F)F [TCMDC-132873] | 29.1% | 24.4% | 9.9% | 46.2% | 0 | 0 | 9.7% | 14.0% | 9.9% | 0.33% | 0 | –
2 | Cc1ccc(-c2nnc3c4ccccc4c(C)nn23)cc1S(=O)(=O)N1CCN(CCO)CC1 [TCMDC-124482] | – | – | – | – | – | – | – | – | – | – | – | % inhibition male (individual replicates) R1 [1, 7]: 14.3%; % inhibition male (individual replicates) R3 [1, 7]: -2.0%; % inhibition male (individual replicates) R4 [1, 7]: 34.9%; Average inhibition male (%) [1, 5]: 14.9%; % inhibition female (individual replicates) R1 [2, 7]: 11.9%; % inhibition female (individual replicates) R3 [2, 7]: -40.2%; % inhibition female (individual replicates) R4 [2, 7]: 14.7%; Average inhibition female (%) [2, 5]: -3.6%
3 | CN1CCC(N2CCN(Cc3cccc(-c4ccc(-c5nc6cc(F)ccc6[nH]5)cc4)c3)CC2)CC1.O=C(O)C(F)(F)F [TCMDC-133858] | 26.9% | 35.0% | -5.5% | 46.2% | 0 | 0 | 6.0% | 1.0% | -3.8% | 20.5% | 0 | –
4 | COc1ccc(N2C(N)=NC(N)=NC2(C)C)cc1.Cl [TCMDC-124269] | – | – | – | – | – | – | – | – | – | – | – | % inhibition male (individual replicates) R1 [1, 7]: 22.5%; % inhibition male (individual replicates) R3 [1, 7]: 4.0%; % inhibition male (individual replicates) R4 [1, 7]: -9.1%; Average inhibition male (%) [1, 5]: 11.6%; % inhibition female (individual replicates) R1 [2, 7]: 13.5%; % inhibition female (individual replicates) R3 [2, 7]: -15.3%; % inhibition female (individual replicates) R4 [2, 7]: 10.3%; Average inhibition female (%) [2, 5]: 1.7%
5 | O=C(O)C(F)(F)F.Oc1ccc(CCNc2nc(NCCCOc3cc(CN4CCCCC4)ccc3F)nc(N3CCNCC3)n2)cc1 [TCMDC-134044] | 22.7% | 35.5% | -22.2% | 28.2% | 0 | 0 | 16.2% | 9.4% | -11.0% | 47.6% | 0 | –
6 | Cc1ccc(-n2c(C)nc3c(Nc4ccc(-c5ccncc5)cc4)ncnc32)c(C)c1 [TCMDC-136289] | 51.6% | 92.5% | – | -28.8% | 2 | 0 | 6.8% | 7.7% | 15.7% | 3.5% | 0 | –
7 | CNCCNCc1ccc(-c2ccc(-c3nc4cc(F)ccc4[nH]3)s2)cc1.O=C(O)C(F)(F)F [TCMDC-132829] | – | – | – | – | – | – | – | – | – | – | – | Average inhibition male (%) [1, 8]: 66.0%; % inhibition male (individual replicates) R1 [1, 8]: 54.3%; % inhibition male (individual replicates) R4 [1, 8]: 78.8%; HitlevelM ([1]; number of replicates with >50% inhibition in the male readout, 2µM): 3; Average inhibition female (%) [2, 8]: 12.3%; % inhibition female (individual replicates) R1 [2, 8]: 11.4%; % inhibition female (individual replicates) R3 [2, 8]: 10.0%; % inhibition female (individual replicates) R4 [2, 8]: 9.0%; HitlevelF ([2]; number of replicates with >50% inhibition in the female readout, 2µM): 0
8 | C=C[C@]1(C)C[C@@H](OC(=O)CNC[C@@H](O)CN2C[C@H](c3ccnc4ccc(OC)nc34)OC2=O)[C@]2(C)[C@H](C)CC[C@]3(CCC(=O)[C@H]32)[C@@H](C)[C@@H]1O [TCMDC-135366] | – | – | – | – | – | – | – | – | – | – | – | % inhibition male (individual replicates) R1 [1, 7]: -4.9%; % inhibition male (individual replicates) R3 [1, 7]: -9.1%; % inhibition male (individual replicates) R4 [1, 7]: 9.5%; Average inhibition male (%) [1, 5]: -1.6%; % inhibition female (individual replicates) R1 [2, 7]: -19.6%; % inhibition female (individual replicates) R3 [2, 7]: -21.7%; % inhibition female (individual replicates) R4 [2, 7]: -0.7%; Average inhibition female (%) [2, 5]: -7.1%
9 | COc1cccc(Cn2ccc3c4c(N)nc(N)nc4ccc32)c1 [TCMDC-137811] | 42.3% | 37.2% | 47.4% | 43.4% | – | – | 75.4% | 72.3% | 74.8% | 79.8% | – | HitlevelM [1, 9]: 0; HitlevelF [2, 10]: 4
10 | CCCC(C)c1ccc(N2C(N)=NC(N)=NC2(C)C)cc1.Cl (stereo not shown) [TCMDC-137715] | – | – | – | – | – | – | – | – | – | – | – | % inhibition male (individual replicates) R1 [1, 7]: 8.4%; % inhibition male (individual replicates) R4 [1, 7]: -43.6%; Average inhibition male (%) [1, 5]: -6.3%; % inhibition female (individual replicates) R1 [2, 7]: -4.9%; % inhibition female (individual replicates) R3 [2, 7]: 0.05%; % inhibition female (individual replicates) R4 [2, 7]: 1.4%; Average inhibition female (%) [2, 5]: -2.9%
11 | O=C(O)C(F)(F)F.c1cc(-c2ccc(CN3CCCCC3)cc2)cc(-c2nc3ccccc3[nH]2)c1 [TCMDC-133917] | 9.6% | 7.6% | 11.1% | 9.5% | 0 | 0 | 7.0% | 8.8% | -3.2% | 28.3% | 0 | –
12 | Br.CCCCCCCNCCNc1cc(C)nc2ccccc12 [TCMDC-137556] | 11.5% | 12.4% | 4.0% | 8.2% | – | – | 18.1% | 25.7% | 0.5% | 18.7% | – | HitlevelM [1, 9]: 0; HitlevelF [2, 10]: 0
13 | O=C(NCCCCN1CCC(c2ccc3c(c2OCCN2CCCC2)CCCC3)CC1)c1ccc(-c2ccc(C(F)(F)F)cc2)cc1 [TCMDC-138768] | 31.7% | 23.4% | -6.7% | 63.6% | 1 | 0 | 9.4% | 18.9% | -7.9% | 3.3% | 0 | –
14 | O=C(/C=C/c1ccc(Cl)c(Cl)c1)N1CCC2CC(N3CCC(c4c[nH]c5ccccc45)CC3)CCC2C1 (stereo not shown) [TCMDC-139677] | 6.9% | -0.85% | 2.4% | 12.3% | 0 | 0 | 4.1% | 10.8% | -1.7% | 7.4% | 0 | –
15 | CC(=O)c1cccc(S(=O)(=O)NCCCNc2nc3cc(C)cc(C)c3cc2C#N)c1 [TCMDC-123734] | -13.5% | -6.4% | -3.8% | -42.5% | 0 | 0 | 6.2% | 1.3% | -13.6% | 33.9% | 0 | –
16 | OCc1ccc2nc3c(cc2c1)-c1cccc2cccc-3c12 [TCMDC-137756] | – | – | – | – | – | – | – | – | – | – | – | % inhibition male (individual replicates) R1 [1, 7]: -3.7%; % inhibition male (individual replicates) R3 [1, 7]: 13.3%; % inhibition male (individual replicates) R4 [1, 7]: 12.3%; Average inhibition male (%) [1, 5]: 6.9%; % inhibition female (individual replicates) R1 [2, 7]: 4.5%; % inhibition female (individual replicates) R3 [2, 7]: -23.9%; % inhibition female (individual replicates) R4 [2, 7]: -12.7%; Average inhibition female (%) [2, 5]: -11.0%
17 | CCc1nc(N)nc(N)c1-c1cccc(Cl)c1 [TCMDC-137371] | -6.5% | 19.6% | -24.6% | -25.1% | 0 | 0 | 4.1% | 14.2% | -6.6% | 5.2% | 0 | –
